Results as given in patent US8003615B2, “Stable vitamin B6 derivative” (Daiichi Fine Chemical Co., Ltd., priority 2003, dated 2011).

How the values were obtained:
Type in all cases: physicochemical
[1] = Test for change in formulation: aqueous solution with calcium pantothenate; details: aqueous solution 0.1 g + 0.1 g calcium pantothenate per 100 ml, 40° C., one month
Procedure: Calcium pantothenate (0.1 g) and a vitamin B6 derivative (0.1 g) were dissolved in purified water and made 100 ml to prepare a sample for stability test in the form of a solution. The sample filled in a sealed glass bottle was stored at 40° C. Appearance of the sample was examined by visual inspection after 0 day, 14 days, and one month, and the vitamin B6 derivative and calcium pantothenate were quantified by the HPLC method in the same manner as in Test Example 11 mentioned above, provided that the detection wavelength for calcium pantothenate was 210 nm.

[2] = Light stability in a dog food
Procedure: A vitamin B6 derivative (0.1 g) was added to wheat flour (10 g), and uniformly mixed. The mixture was further successively added with breast meat of chicken (40.0 g), soybean protein (30.0 g), glucose (5.0 g), citric acid (0.001 g), sodium chloride (1.0 g), copper sulfate (0.01 g), iron sulfate (0.01 g), sorbic acid (0.3 g), and propylene glycol (5.0 g), and uniformly mixed. The mixture was made 100 g with purified water, and uniformly mixed to prepare dog food.
The prepared dog food in an amount of 5 g was put into a petri dish, and exposed to light of a D65 fluorescent lamp at a total illumination of 0, 60,000, 180,000, or 300,000 lux·hr, and then the vitamin B6 derivative was quantified by the HPLC method in the same manner as in Test Example 11 mentioned above.

[3] = Light stability in a drinking water
Procedure: Glucose (4.6 g), Aspartame (0.01 g), citric acid (0.1 g), sodium chloride (0.02 g), potassium chloride (0.02 g), magnesium chloride (0.01 g), calcium lactate (0.04 g), vitamin B6 derivative (0.01 g), sodium L-aspartate (0.07 g), sodium L-glutamate (0.02 g), L-arginine (0.02 g), and aromatic (0.1 g) were dissolved in purified water (70 ml), and then made into a volume of 100 ml with purified water to prepare a drinking water. In this preparation, precipitates and the like were not observed. The prepared drinking water in a volume of 6 ml was filled in a glass bottle, and exposed to light of a D65 fluorescent lamp at a total illumination of 0, 60,000, 180,000, or 300,000 lux·hr, and then the vitamin B6 derivative was quantified by the HPLC method in the same manner as in Test Example 1.

[4] = Light stability in an eye lotion
Procedure: Neostigmine methylsulfate (5 mg), potassium L-aspartate (0.4 g), boric acid (5 mg), sodium borate (5 mg), methyl paraoxybenzoate (10 mg), chlorobutanol (0.1 g), and vitamin B6 derivative (0.1 g) were dissolved in sterilized purified water (70 ml). After dissolution, the solution was made into a volume of 100 ml with sterilized purified water to prepare an eye lotion. In this preparation, precipitates and the like were not observed. The prepared eye lotion in a volume of 6 ml was put into a glass bottle, and exposed to light of a D65 fluorescent lamp at a total illumination of 0, 60,000, 180,000, or 300,000 lux·hr, and then the vitamin B6 derivative was quantified by the HPLC method in the same manner as in Test Example 11 mentioned above.

[5] = Test for change in formulation: powder mixed with calcium pantothenate; details: 40° C. and 75% humidity, one month
Procedure: Calcium pantothenate (1 g) and a vitamin B6 derivative (1 g) was uniformly mixed in a mortar to prepare a sample in the form of a powder for stability test. The sample placed in an opened glass bottle was stored in an oven at 40° C. under 75% humidity. Appearance of the sample was examined by visual inspection after 0 day, 14 days, and one month, and the vitamin B6 derivative and calcium pantothenate were quantified by the HPLC method in the same manner as in Test Example 11 mentioned above, provided that the detection wavelength for calcium pantothenate was 210 nm.

[6] = Light stability in a shampoo
Procedure: Sodium coconut oil fatty acid methyltaurine (10.0 g), polyoxyethylene alkyl ether sodium sulfate (20.0 g), lauryl dimethylaminoacetate betaine (10.0 g), coconut oil fatty acid diethanolamide (4.0 g), propylene glycol (2.0 g), vitamin B6 derivative (0.1 g), and methyl paraoxybenzoate (0.01 g) were added to purified water (40 ml), and warmed to 70° C. for dissolution. The solution was cooled to a temperature below 35° C., and then adjusted to pH 6.8 with 10% aqueous citric acid, and made into a volume of 100 ml with purified water to prepare a shampoo. In this preparation, precipitates and the like were not observed. The prepared shampoo in a volume of 6 ml was filled in a glass bottle, and exposed to light of a D65 fluorescent lamp at a total illumination of 0, 60,000, 180,000, or 300,000 lux·hr, and then the vitamin B6 derivative was quantified. The same sample was separately stored at 50° C., and after 0 day, 14 days, one month, and two months, the vitamin B6 derivative was quantified by the HPLC method in the same manner as in Test Example 11 mentioned above.

[7] = Light stability in a lotion
Procedure: Ceramide formulation (0.1 g), 1,3-butylene glycol (2.5 g), dipropylene glycol (2.5 g), and methylparaben (0.01 g) were warmed at 80° C. and stirred until the mixture became transparent. The mixture was cooled to 35° C., then added with 0.1 g of a vitamin B6 derivative (pyridoxine 3-β-D-glucoside, pyridoxine 3-β-D-glucoside hydrochloride, or pyridoxine 3,4-cyclic sodium phosphate: in Test Examples 11 to 16 mentioned below, the “vitamin B6 derivative” means one of these three kinds of substances) or 0.1 g of pyridoxine 3-sodium sulfate, 1.0 g of sorbitol-fermented polysaccharide and 90 ml of purified water with stirring, and the mixture were stirred until the added substances were dissolved. The solution was adjusted to pH 6.4 with 10% aqueous citric acid, and made into a volume of 100 ml with purified water to prepare a lotion. In this preparation, precipitates and the like were not observed. The prepared lotion in a volume of 6 ml was filled in a glass bottle, and exposed to light of a D65 fluorescent lamp at a total illumination of 0, 60,000, 180,000, or 300,000 lux·hr, and then the vitamin B6 derivative was quantified. The same sample was separately stored at 50° C., and after 0 day, 14 days, one month, and two months, the vitamin B6 derivative was quantified by the HPLC method described in Test Example 1.

[8] = D65 fluorescent lamp, 180,000 lux·hr for 3 days
[9] = D65 fluorescent lamp, 300,000 lux·hr for 5 days

With `Cc1ncc(CO)c(CO)c1O.Cl` [pyridoxine hydrochloride] the “remained calcium pantothenate in the formulation with the substance” value [1] was 83%, the “remained substance in dog food after irradiation” value [2, 8] was 90% and the “remained substance in dog food after irradiation” value [2, 9] was 85%. For the same compound, the “remained substance in drinking water after irradiation” value [3, 8] was 68%, the “remained substance in drinking water after irradiation” value [3, 9] was 56% and the “remained substance in eye lotion after irradiation” value [4, 8] was 68%. The “remained substance in eye lotion after irradiation” value [4, 9] was 49%, the “remained calcium pantothenate in the formulation with the substance” value ([5]; powder 1 g + 1 g calcium pantothenate) was 81% and the “appearance of the formulation with calcium pantothenate” value ([5]; powder, visual inspection) was “the white appearance became brown, and blocking and deliquescence were observed”. The “remained substance in shampoo after irradiation” value ([6]; shampoo pH 6.8, D65 fluorescent lamp, 180,000 lux·hr for 3 days) was 60%, the “remained substance in shampoo after irradiation” value ([6]; shampoo pH 6.8, D65 fluorescent lamp, 300,000 lux·hr for 5 days) was 58% and the “remained substance in lotion after irradiation” value ([7]; lotion pH 6.4, D65 fluorescent lamp, 180,000 lux·hr for 3 days) was 42%. For the same compound, the “remained substance in lotion after irradiation” value ([7]; lotion pH 6.4, D65 fluorescent lamp, 300,000 lux·hr for 5 days) was 30%.
